Measurements: patent US20260231998A1, “COMPOSITIONS FOR MODULATING GUT MICROFLORA POPULATIONS, TREATMENT OF DYSBIOSIS AND DISEASE PREVENTION, AND METHODS FOR MAKING AND USING SAME” (PERSEPHONE BIOSCIENCES, INC., priority 2023, published 2026)

Key:
[1] = test system: Bifidobacterium infantis strain PB-STR-093; assay: Antibiotic susceptibility (MIC) of isolated strains, EFSA standards; assay type: cell-based; conditions: observed value
Procedure: In alternative embodiments the complete genome sequence of each organism is screened to ensure it contains no genes or pathogenicity island gene clusters encoding known virulence factors, toxins, or antibiotic resistance functions, using publicly available databases such as DBETH55 (for example, see Chakraborty A, et al. (2012) Nucleic Acids Res. 40:615-620) and VFDB56 (Chen L, et al. (2005) Nucleic Acids Res. 33:325-328). Each organism is evaluated by standard antibiotic sensitivity profile techniques such as broth microdilution susceptibility panels or plate-based methods such as disk diffusion method and antimicrobial gradient method (James H. Jorgensen and Mary Jane Ferraro 2009 Clinical Infectious Diseases 49:1749-1755). Such tests determine the minimal inhibitory concentration (MIC) of an antibiotic on microbial growth. Antibiotics evaluated include but are not limited to amoxicillin, amoxicillin/clavulanic acid, carbapenem, methicillin, ampicillin, gentamicin, metronidazole, vancomycin, and neomycin. MIC determinations of novel microbes are compared to published values for both sensitive and resistant related strains to make an assessment on sensitivity (CLSI Guideline M45: Methods for Antimicrobial Dilution and Disk Susceptibility Testing of Infrequently Isolated or Fastidious Bacteria. Wayne, PA; 2015) to determine possible relative increases in antibiotic resistance.

[2] = test system: Bifidobacterium infantis strain PB-STR-093; conditions: expected value based on the EFSA standards; cited from earlier work
[3] = test system: simulated gut environment; assay: Simulated gut environment: community composition after introduction of bacteria and/or prebiotics (whole genome sequencing); assay type: cell-based, human; conditions: B. infantis combined with lacto-N-tetraose (LNT)
Procedure: The ability of a bacterial addition (representing a probiotic application) to shift the composition of the gut environment was evaluated through the introduction of Bifidobacterium infantis isolate PB-STR-093.
Fifteen different combinations were evaluated covering Bifidobacterium infantis, Bifidobacterium longum, Bifidobacterium breve, and Bifidobacterium bifidum (shown in table 31, where the numerical value for each combination represents the ratio of the microbe in the combination). […] Compositions were also evaluated for their ability to reduce pathogenic species, as well as their metabolic output.

Escherichia coli = assay: Simulated gut environment: levels of potentially pathogenic bacteria; assay type: cell-based; conditions: LNT as carbon source together with B. infantis
Procedure: (§1) To understand the applicability of in vitro observations to the human gut, strains are evaluated in the context of a simulated gut environment. These gut environments are produced with minimal media and seeded with FMT aliquots (Example 2) to reproduce an environment that represents the gut. In these environments, the introduction of prebiotics (in the form of carbon sources, nitrogen sources, and other small molecules) and the introduction of bacteria can be used to shift the community composition, metabolic output, and immunological impact of the gut environments. This allows prebiotic, probiotic, and synbiotic (prebiotic and, probiotic) combinations to be rapidly evaluated to confirm or reject observations determined in simpler systems such as single strain microbial cultures. In subsequent embodiments, machine learning will be used to further reduce the space that must be explored experimentally.

[4] = test system: Streptococcus vestibularis; assay: as above; assay type: cell-based; conditions: LNT as carbon source together with B. infantis
Procedure: as §1

[5] = Growth (OD600) of isolated microbial strains on medium with different carbon sources; assay type: cell-based
Procedure: The growth of isolated strains is evaluated to determine their ability to consume carbon sources and produce specific metabolites. Strains are grown in a minimal media (for example 2 grams (2 ml fine) peptone water (peptone, 10 g/L sodium chloride, 5 g/L), 2 grams yeast extract, 2 grams NaHCO3, 0.1 g NaCl, 0.04 g K2HPO4, 0.04 g KH2PO4, 0.01 g MgSO4·7H2O, 0.01 g CaCl2·6H2O, 2 ml Tween 80, 10 g carbohydrate of choice, 10 μl vitamin K, 0.5 g cysteine, 0.5 g bile salts) that affords control over carbon source. Examples of carbon sources evaluated (independently or in combination) include but are not limited to glucose, lactose, galactose, fructose, xylose, galactooligosaccharides, fructooligosaccharides, xylooligosaccharides, lacto-N-tetraose, lacto-N-neotetraose, 2′-fucosyllactose, 3-fucosyllactose, 3′-sialyllactose, and 6′-sialyllactose. Growth is evaluated by determination of the OD600, which can be performed either on individual samples with a cuvette or tube-based spectrometer (for example the CO 75000™ colorimeter) or on multiple samples in a plate-based format using a plate reader (for example CYTATION 3™). In both cases, values are normalized based on signals from media alone.
Select bacteria were evaluated for their ability to consume different carbon sources to aid in selection of live biotherapeutic (probiotic) bacteria and combinations, mixes and consortia of bacteria as provided herein, and prebiotic combinations (see Table 6) used in compositions and methods as provided herein;

| Molecule | Observed Antibiotic MIC [1] [µg/mL] | Expected Antibiotic MIC [2] [µg/mL] | also measured |
| --- | --- | --- | --- |
| CN(C)[C@@H]1C(O)=C(C(N)=O)C(=O)[C@@]2(O)C(O)=C3C(=O)c4c(O)cccc4[C@@](C)(O)[C@H]3C[C@@H]12 [Tetracycline] | 4 |  |  |
| [H]/N=C(/N)N[C@H]1[C@H](O)[C@@H](O)[C@H](O[C@@H]2O[C@@H](C)[C@](O)(C=O)[C@H]2O[C@@H]2O[C@@H](CO)[C@H](O)[C@@H](O)[C@@H]2NC)[C@@H](N/C(N)=N\[H])[C@@H]1O [Streptomycin] | 32 | 128 |  |
| CC(=O)N[C@H]1[C@H](O[C@H]2[C@@H](O)[C@@H](CO)O[C@@H](O[C@H]3[C@H](O)[C@@H](O)C(O)O[C@@H]3CO)[C@@H]2O)O[C@H](CO)[C@@H](O)[C@@H]1O[C@@H]1O[C@H](CO)[C@H](O)[C@H](O)[C@H]1O (some centres unmarked) [LNT, lacto-N-tetraose] |  |  | growth, engraftment and abundance of Bifidobacterium infantis in the sample [3]: further boosts the abundance of Bifidobacterium infantis; level of Escherichia coli in simulated gut environment (Escherichia coli): further reduces the presence of these bacteria; level of Streptococcus vestibularis in simulated gut environment [4]: further reduces the presence of these bacteria |
| Gentamicin | 64 | 64 |  |
| CC[C@H]1OC(=O)[C@H](C)[C@@H](O[C@H]2C[C@@](C)(OC)[C@@H](O)[C@H](C)O2)[C@H](C)[C@@H](O[C@@H]2O[C@H](C)C[C@H](N(C)C)[C@H]2O)[C@](C)(O)C[C@@H](C)C(=O)[C@H](C)[C@@H](O)[C@]1(C)O [Erythromycin] | 1 | 1 |  |
| CN[C@H](CC(C)C)C(=O)N[C@H]1C(=O)N[C@@H](CC(N)=O)C(=O)N[C@H]2C(=O)N[C@H]3C(=O)N[C@H](C(=O)N[C@H](C(=O)O)c4cc(O)cc(O)c4-c4cc3ccc4O)[C@H](O)c3ccc(c(Cl)c3)Oc3cc2cc(c3O[C@@H]2O[C@H](CO)[C@@H](O)[C@H](O)[C@H]2O[C@H]2C[C@](C)(N)[C@H](O)[C@H](C)O2)Oc2ccc(cc2Cl)[C@H]1O [Vancomycin] | 0.5 | 2 |  |
| CC1(C)S[C@@H]2[C@H](NC(=O)[C@H](N)c3ccccc3)C(=O)N2[C@H]1C(=O)O [Ampicillin] | 2 | 2 |  |
| Bacteroides fragilis |  |  | OD(600) after 24 hours growth ([5]; carbon source 2′-FL): 0.261; OD(600) after 24 hours growth ([5]; carbon source 3′-SL): 0.457; OD(600) after 24 hours growth ([5]; carbon source FOS): 0.433; OD(600) after 24 hours growth ([5]; carbon source GOS): 0.325; OD(600) after 24 hours growth ([5]; carbon source Glucose): 0.353; OD(600) after 24 hours growth ([5]; carbon source LNT): 0.337; OD(600) after 24 hours growth ([5]; carbon source Mucin): 0.186; OD(600) after 24 hours growth ([5]; carbon source XOS): 0.359; OD(600) after 24 hours growth ([5]; medium with No Carbohydrate): 0.073 |
| O=C(N[C@H](CO)[C@H](O)c1ccc([N+](=O)[O-])cc1)C(Cl)Cl [Chloramphenicol] | 4 | 4 |  |
| CCC[C@@H]1C[C@@H](C(=O)N[C@@H]([C@H]2O[C@H](SC)[C@H](O)[C@@H](O)[C@H]2O)[C@H](C)Cl)N(C)C1 [Clindamycin] | 0.125 |  |  |
